These results are taken from US8518889B2, “Method of treating cancer with antibodies against long-form leukotriene B4 receptor BLT2” (Korea University Research & Business Foundation, priority 2007, dated 2013).

pIC50: −log10 of the molar value.

The test system of one assay is PWR-1E cells. Description: MTT assay, cell viability. Format: cell-based. The following applies: increasing concentration, 48 hr, serum free RPMI 1640. On the procedure:
The effect of LY255283, BLT2 antagonist, on cell viability was examined by MTT assay. PWR-1E cells were seeded at a density of 1.0×10^4 cells/well and LNCaP cells were seeded at a density of 1.5×10^4 cells/well in 96-well culture dishes. After 36 hr, the medium was replaced with serum free RPMI 1640 and cells were stimulated with DMSO or LY255283 of increasing concentration. MTT (1 mg/mu) was added at 48 hr after LY255283 treatment and after 4 hr of further incubation the medium was replaced with DMSO. Then cells were incubated at room temperature for 10 min. The spectrophotometric absorbance of the samples was determined by using Ultra Multifunctional Microplate Reader at 540 nm. LNCaP cells and PWR-1E cells were stimulated with LY255283 of various concentration in serum free RPM11640.
For orientation: Formazan colour is commonly taken as a measure of viable cells.

For assay [1], the system named is MDA-MB-231 breast cancer cells. Description: Matrigel invasion assay. Format: cell-based, human. The following applies: antibody 20 μg/ml, LY255283 10 μM, 48 h. On the procedure: LF-BLT2 IgG Ab were also tested to determine if they had anti-BLT2-neutralizing effect in a cancer cell invasion assay. The migration of MDA-MB-231 breast cancer cells through Matrigel matrix gel in the presence of anti-LF-BLT2 was examined. The upper chamber of transwells (8.0-μm membrane pores; Costar) were coated with 2.5 μg/ml Matrigel matrix gel (BD Biosciences) and incubated at 37° C. for 2 hr. A total of 5×10^4 cells in 100 μl of medium with 0.5% FBS were added to the upper chamber and allowed to migrate toward the bottom chamber, which contained medium with 10% FBS as a chemoattractant. MDA-MB-231 cells were stopped at 48 hr. Cells on the top surface of the membranes were removed using a cotton swab, and cells on the underside were fixed in methanol and stained with hematoxylin and eosin (H&E).

In a further assay the test system is eosinophil membranes. The following applies: read-out: IC50, inhibits the binding of radiolabeled LTB4 to eosinophil membranes; cited from earlier work.
For assay [2], the system named is acute lung injury induced by endotoxin. The following applies: pigs; cited from earlier work.
The test system of the next assay is Rat2-HO6 cells. As to the kind of experiment: metastasis survival analysis (Kaplan-Meier). The following applies: 2.5 mg/kg intraperitoneal, 7 weeks. Format: in vivo, nude mice. As for the experimental part:
All experimental animals used in this study were treated according to guidelines approved by the Institutional Animal Care and Use Committee of Korea University. Female nude mice (Charles River, Wilmington, Mass.), four-weeks-old at the time of injection, were used in the experimental metastasis assay. Rat-2, Rat2-HO6, and Rat2-BLT2 cells (5×10^5 cells) were prepared for injection from cultures in logarithmic growth at the time of harvest. The cells were briefly treated with 0.025% trypsin and 0.1% EDTA in Hanks' balanced salt solution and quickly removed from trypsin by centrifugation, resuspended in saline containing LTB4, and injected within 1 hr in 0.1 ml into the lateral tail vein with a 26-gauge needle. For inhibitor experiments, U75302 and LY255283 (0.25 mg/kg for BLT1 antagonist and 2.5 mg/kg for BLT2 antagonist) was injected intraperitoneally 3 and 5 days after injection of cells that were pretreated with inhibitors. The mice were maintained under aseptic barrier conditions until they were sacrificed at 21 days after cell injection (n=8, each group) to identify pulmonary metastasis or to investigate the mortality of mice at the end of the experiment (7 weeks) (n=8, each group). Metastasis survival was analyzed in Kaplan-Meyer plots.

A further assay deals with SV-HUC-1 cells. As to the kind of experiment: cell cycle analysis (PI, flow cytometry). Format: cell-based. The following applies: 48 hr, RPMI 1640 with 0.5% FBS. As for the experimental part: The cells grown in 6-well plate were stimulated with 5 μM and 10 μM LY255283, 1 μM U75302 for 48 h in RPMI 1640 containing 0.5% FBS. The cells which were collected by brief trypsinization were fixed overnight with 70% ethanol at 4° C. The cells were resuspended in PBS containing RNase A (100 μg/ml) and incubated for 30 min at 37° C. The cells were stained with propidium iodide (50 μg/ml) (Sigma). Acquisition and analysis was performed by FACS using Cell Quest Alias software (BD Bioscience). […] Cells were treated with BLT antagonist for 48 hours and the cell cycle population was measured by flow cytometry. In brief, cells were plated in 6 well plate and then treated with LY255283, U75302 for 48 hr. At the end of the treatment, the cells were harvested and then centrifuged. The cells fixed in ice-cold 70% ethanol for 24 hr and centrifuged. The pellet were resuspended in 0.5 ml phosphate-buffered saline (PBS) and incubated with Pl 1 mg/ml treatment for 15 min.

Regarding `CCc1cc(C(C)=O)c(O)cc1OCCCCCC(C)(C)c1nnn[nH]1` [LY255283, 1-[5-ethyl-2-hydroxy-4-[[6-methyl-6-(1H-tetrazol-5-yl)heptyl]oxy]phenyl]-ethanone], the “PWR-1E cell viability (MTT)” value with PWR-1E cells was “no effect”. In addition, in assay [1], the invasion activity entry was “showed inhibitory activity”. For the same compound, the negative-log IC50 (pIC50) (as a rule, the IC50 on a negative log10 scale, so that one unit is a factor of ten) in the assay on eosinophil membranes is 6.59. Besides, the “activation of neutrophils and acute lung injury induced by endotoxin” value in assay [2] was “limits activation of neutrophils and prevents acute lung injury”. The “survival of mouse injected with Ras-oncogene expressing transformed cells” value in the assay on Rat2-HO6 cells is recorded as “extended the survival”.
As for `CCCCC/C=C\C[C@@H](O)/C=C/c1cccc(C[C@@H](O)CCCCO)n1` [U75302], the cell cycle result with SV-HUC-1 cells is “not effect”.
